From PubChem BioAssay AID210 (DTP/NCI, 2004)
“And” between values parts separate entries of the source, which are not always exact repeats. Equal values may be shown once. Inconclusive results and toxic doses are left out.

Tested on: CD2F1 mice, ip Colon 26 adenocarcinoma, median survival T/C
Test: NCI In Vivo Anticancer Drug Screen. Data for tumor model Colon 26 Adenocarcinoma (intraperitoneal) in CD2F1 (CDF1) mice
Conditions: endpoint: median survival time, higher = longer survival
Description: The antitumor activity of compounds was measured in mice bearing transplantable tumors. Survival or tumor size were measured and the results are expressed as the measurement made in the treated group (T) divided by the measurement made in the vehicle treated control group (C). The tumor model used in this assay is Colon 26 Adenocarcinoma (intraperitoneal) in CD2F1 (CDF1) mice

## COc1cccc2c1C(=O)c1c(O)c3c(c(O)c1C2=O)C[C@@](O)(C(C)=O)C[C@@H]3OC1CC(N)C(O)C(C)O1 (stereo partly specified)
dose: 1.8 mg/kg/injection, schedule: Q04DX003 (ip), vehicle: water
  T/C: 114 % of control
dose: 2.0 mg/kg/injection, schedule: Q04DX003 (ip), vehicle: saline
  T/C: 158 % of control
dose: 2.0 mg/kg/injection, schedule: Q07DX002 (iv), vehicle: saline
  T/C: 113 % of control
dose: 2.16 mg/kg/injection, schedule: Q04DX003 (ip), vehicle: water
  T/C: 119 % of control
dose: 3.4 mg/kg/injection, schedule: Q07DX002 (iv), vehicle: saline
  T/C: 106 % of control
dose: 3.6 mg/kg/injection, schedule: Q04DX003 (ip), vehicle: water
  T/C: 103 % of control
dose: 4.0 mg/kg/injection, schedule: Q04DX003 (ip), vehicle: saline
  T/C: 115 % of control
dose: 5.7 mg/kg/injection, schedule: Q07DX002 (iv), vehicle: saline
  T/C: 104 % of control
dose: 9.5 mg/kg/injection, schedule: Q07DX002 (iv), vehicle: saline
  T/C: 115 % of control

## CC[C@@]1(O)C[C@H](OC2CC(N(C)C)C(OC3CC(O)C(OC4CCC(=O)C(C)O4)C(C)O3)C(C)O2)c2c(cc3c(c2O)C(=O)c2c(O)cccc2C3=O)[C@H]1C(=O)OC (stereo partly specified)
dose: 6.2 mg/kg/injection, schedule: Q07DX003 (iv), vehicle: water
  T/C: 105 % of control
dose: 10.0 mg/kg/injection, schedule: Q07DX003 (iv), vehicle: water
  T/C: 119 % of control
dose: 16.0 mg/kg/injection, schedule: Q07DX003 (iv), vehicle: water
  T/C: 117 % of control

## O=c1[nH]c(=O)n(C2CC(O)C(CO)O2)cc1F (stereo unspecified)
dose: 80.0 mg/kg/injection, schedule: Q07DX003 (ip), vehicle: saline
  T/C: 155 % of control
dose: 120.0 mg/kg/injection, schedule: Q07DX003 (ip), vehicle: saline
  T/C: 161 % of control and 171 % of control
dose: 190.0 mg/kg/injection, schedule: Q07DX003 (ip), vehicle: saline
  T/C: 150 % of control and 167 % of control
dose: 280.0 mg/kg/injection, schedule: Q07DX003 (ip), vehicle: saline
  T/C: 167 % of control and 169 % of control

## CNCCNc1ccc(NCCNC)c2c1C(=O)c1ccccc1C2=O
dose: 1.0 mg/kg/injection, schedule: Q01DX009 (ip), vehicle: acid diluted with saline
  T/C: 154 % of control
dose: 1.5 mg/kg/injection, schedule: Q01DX009 (ip), vehicle: acid diluted with saline
  T/C: 205 % of control
dose: 2.0 mg/kg/injection, schedule: Q01DX009 (ip), vehicle: acid diluted with saline
  T/C: 219 % of control
dose: 3.0 mg/kg/injection, schedule: Q01DX009 (ip), vehicle: acid diluted with saline
  T/C: 236 % of control
dose: 4.0 mg/kg/injection, schedule: Q01DX009 (ip), vehicle: acid diluted with saline
  T/C: 215 % of control
dose: 6.0 mg/kg/injection, schedule: Q01DX009 (ip), vehicle: acid diluted with saline
  T/C: 226 % of control
dose: 8.0 mg/kg/injection, schedule: Q01DX009 (ip), vehicle: acid diluted with saline
  T/C: 225 % of control
dose: 12.0 mg/kg/injection, schedule: Q01DX009 (ip), vehicle: acid diluted with saline
  T/C: 236 % of control
dose: 16.0 mg/kg/injection, schedule: Q01DX009 (ip), vehicle: acid diluted with saline
  T/C: 115 % of control

## Cc1c2oc3c(C)c(N)cc(C(=O)NC4C(=O)NC(C(C)C)C(=O)N5CCCC5C(=O)N(C)CC(=O)N(C)C(C(C)C)C(=O)OC4C)c3nc-2c(C(=O)NC2C(=O)NC(C(C)C)C(=O)N3CCCC3C(=O)N(C)CC(=O)N(C)C(C(C)C)C(=O)OC2C)c(N)c1=O (stereo unspecified)
dose: 500.0 micrograms/kg/injection, schedule: Q01DX001 (ip), vehicle: saline + alcohol
  T/C: 102 % of control
dose: 1000.0 micrograms/kg/injection, schedule: Q01DX001 (ip), vehicle: saline + alcohol
  T/C: 102 % of control

## O=C(O)c1c2c(nc3ccccc13)Cc1ccccc1-2
dose: 12.5 mg/kg/injection, schedule: Q04DX002 (ip), vehicle: water
  T/C: 97 % of control
dose: 25.0 mg/kg/injection, schedule: Q04DX002 (ip), vehicle: water
  T/C: 113 % of control
dose: 100.0 mg/kg/injection, schedule: Q04DX002 (ip), vehicle: water
  T/C: 105 % of control

## COC12[C@@H]3N[C@@H]3CN1C1=C(C(=O)C(NCCSSCCNC3=C(C)C(=O)C4=C(C3=O)C(COC(N)=O)[C@]3(OC)C5N[C@@H]5CN43)=C(C)C1=O)[C@@H]2COC(N)=O (stereo partly specified)
dose: 1.0 mg/kg/injection, schedule: Q01DX004 (ip), vehicle: other
  T/C: 94 % of control
dose: 2.0 mg/kg/injection, schedule: Q01DX004 (ip), vehicle: other
  T/C: 99 % of control
dose: 2.0 mg/kg/injection, schedule: Q03DX002 (ip), vehicle: other
  T/C: 100 % of control
dose: 4.0 mg/kg/injection, schedule: Q01DX004 (ip), vehicle: other
  T/C: 107 % of control
dose: 4.0 mg/kg/injection, schedule: Q03DX002 (ip), vehicle: other
  T/C: 117 % of control
dose: 6.0 mg/kg/injection, schedule: Q01DX004 (ip), vehicle: other
  T/C: 101 % of control
dose: 6.0 mg/kg/injection, schedule: Q01DX005 (ip), vehicle: other
  T/C: 96 % of control
dose: 9.0 mg/kg/injection, schedule: Q01DX005 (ip), vehicle: other
  T/C: 96 % of control
dose: 9.0 mg/kg/injection, schedule: Q03DX002 (ip), vehicle: other
  T/C: 110 % of control
dose: 15.0 mg/kg/injection, schedule: Q01DX005 (ip), vehicle: other
  T/C: 106 % of control

## c1cc[c]([Sn][c]2ccccc2)cc1
dose: 0.62 mg/kg/injection, schedule: Q04DX003 (ip), vehicle: saline with Tween-80
  T/C: 97 % of control
dose: 0.62 mg/kg/injection, schedule: Q04DX003 (ip), vehicle: saline
  T/C: 105 % of control
dose: 1.25 mg/kg/injection, schedule: Q04DX003 (ip), vehicle: saline with Tween-80
  T/C: 92 % of control
dose: 1.25 mg/kg/injection, schedule: Q04DX003 (ip), vehicle: saline
  T/C: 112 % of control
dose: 2.5 mg/kg/injection, schedule: Q04DX003 (ip), vehicle: saline with Tween-80
  T/C: 100 % of control
dose: 2.5 mg/kg/injection, schedule: Q04DX003 (ip), vehicle: saline
  T/C: 107 % of control
dose: 5.0 mg/kg/injection, schedule: Q04DX003 (ip), vehicle: saline with Tween-80
  T/C: 108 % of control
dose: 5.0 mg/kg/injection, schedule: Q04DX003 (ip), vehicle: saline
  T/C: 117 % of control
dose: 10.0 mg/kg/injection, schedule: Q04DX003 (ip), vehicle: saline
  T/C: 86 % of control

## CS(=O)(=O)OCCCNCCCOS(C)(=O)=O
dose: 18.75 mg/kg/injection, schedule: Q04DX003 (ip), vehicle: saline
  T/C: 194 % of control
dose: 37.5 mg/kg/injection, schedule: Q04DX003 (ip), vehicle: saline
  T/C: 241 % of control
dose: 75.0 mg/kg/injection, schedule: Q04DX003 (ip), vehicle: saline
  T/C: 338 % of control
dose: 150.0 mg/kg/injection, schedule: Q04DX003 (ip), vehicle: saline
  T/C: 338 % of control

## Nc1ncn(C2OC(CO)C(O)C2O)c(=O)n1 (stereo unspecified)
dose: 13.0 mg/kg/injection, schedule: Q04DX003 (iv), vehicle: saline
  T/C: 107 % of control
dose: 21.0 mg/kg/injection, schedule: Q04DX003 (iv), vehicle: saline
  T/C: 92 % of control

## C[C@]12C=CC(=O)C=C1CC[C@@H]1[C@@H]2C(=O)C[C@@]2(C)[C@H]1CC[C@]2(O)C(=O)CO
dose: 25.0 mg/kg/injection, schedule: Q04DX003 (ip), vehicle: Klucel (hydroxypropylcellulose) (HPC)
  T/C: 105 % of control
dose: 50.0 mg/kg/injection, schedule: Q04DX003 (ip), vehicle: Klucel (hydroxypropylcellulose) (HPC)
  T/C: 100 % of control
dose: 100.0 mg/kg/injection, schedule: Q04DX003 (ip), vehicle: Klucel (hydroxypropylcellulose) (HPC)
  T/C: 100 % of control
dose: 200.0 mg/kg/injection, schedule: Q04DX003 (ip), vehicle: Klucel (hydroxypropylcellulose) (HPC)
  T/C: 96 % of control
dose: 400.0 mg/kg/injection, schedule: Q04DX003 (ip), vehicle: Klucel (hydroxypropylcellulose) (HPC)
  T/C: 98 % of control

## COc1cccc2c1C(=O)c1c(O)c3c(c(O)c1C2=O)C[C@@](O)(C(=O)COC(=O)c1cccnc1)C[C@@H]3OC1CC(N)C(O)C(C)O1 (stereo partly specified)
dose: 5.5 mg/kg/injection, schedule: Q07DX003 (iv), vehicle: other
  T/C: 113 % of control
dose: 8.5 mg/kg/injection, schedule: Q07DX003 (iv), vehicle: other
  T/C: 108 % of control
dose: 13.1 mg/kg/injection, schedule: Q07DX003 (iv), vehicle: other
  T/C: 114 % of control
dose: 17.0 mg/kg/injection, schedule: Q07DX002 (iv), vehicle: alkali diluted with saline
  T/C: 99 % of control
dose: 20.3 mg/kg/injection, schedule: Q07DX003 (iv), vehicle: other
  T/C: 115 % of control
dose: 26.0 mg/kg/injection, schedule: Q07DX002 (iv), vehicle: alkali diluted with saline
  T/C: 94 % of control
